Measurements as given in paper PMC7071076, “Antibacterial Activity and Pharmacokinetic Profile of a Promising Antibacterial Agent: 22-(2-Amino-phenylsulfanyl)-22-Deoxypleuromutilin” (Molecules, 2020).
Like-named read-outs stand apart in the source and are kept apart here.

Test: Pharmacokinetic study in mice
Assay type: in vivo
Conditions: female, ICR, mouse, plasma, 10 mg/kg
Procedure: Pharmacokinetic parameters of amphenmulin were measured according to previous reports with some modifications. Each group consisted of eight female SPF-ICR mice. Amphenmulin (1 mg/mL) was administered intravenously, intraperitoneally, and orally at a dose of 10 mg/kg, respectively. Formulation of amphenmulin was a filtered solution in 5% DMSO, 5% Tween-80, and 90% normal saline. Serial samples (each 0.2 mL) were collected from the ocular venous plexus and placed in a plastic centrifuge tube. The blood samples were placed at room temperature for 20 min and transferred to a 4 °C refrigerator for 12 h to promote blood coagulation. Then samples were centrifuged at 2000 r/min for 10 min to get serum. Serum samples were frozen at −20°C. 100 µL of samples was accurately absorbed and mixed with 100 µL of acetonitrile in a 1.5 mL centrifuge tube. The sample was mixed vigorously and centrifuged at 12,000 rpm for 10 min. The supernatant was transferred, filtered through a 0.22 μm cellulose membrane filter and used for LC-MS/MS analysis. Equipment and analysis conditions were shown in supplemental data. The pharmacokinetic parameters of amphenmulin were determined from the mean plasma concentration with noncompartmental analysis in WinNonlin 5.2 software (Pharsight, Mountain View, CA, USA). Data were shown as mean ± standard deviation (SD).

[1] = intraperitoneal, mice, intraperitoneal 10 mg/kg, n = 8, read-out: plasma concentration, mean ± S.D
[2] = iv, intravenous 10 mg/kg, mice 1-8 in order, read-out: plasma concentration, individual mice
[3] = iv, mice, intravenous 10 mg/kg, n = 8, read-out: plasma concentration, mean ± S.D
[4] = po, mice, oral 10 mg/kg, n = 8, read-out: plasma concentration, mean ± S.D

C=C[C@]1(C)C[C@@H](OC(=O)CSc2ccccc2N)[C@]2(C)[C@H](C)CC[C@]3(CCC(=O)[C@H]32)[C@@H](C)[C@@H]1O [Amphenmulin, 22-(2-amino-phenylsulfanyl)-22-deoxypleuromutilin]
concentration at 0.083 h [1]: 850 ± 320 ng/mL | concentration at 0.25 h [1]: 1220 ± 460 ng/mL | concentration at 0.5 h [1]: 980 ± 420 ng/mL | concentration at 0.75 h [1]: 740 ± 330 ng/mL | concentration at 1 h [1]: 580 ± 240 ng/mL | concentration at 2 h [1]: 340 ± 160 ng/mL | concentration at 4 h [1]: 190 ± 120 ng/mL | concentration at 6 h [1]: 120 ± 90 ng/mL | concentration at 8 h [1]: 70 ± 40 ng/mL | concentration at 12 h [1]: 30 ± 10 ng/mL | AUC(0-inf) (ip, mice, intraperitoneal): 2520 ± 810 ng·h/mL | Cmax (ip, mice, intraperitoneal): 1340 ± 420 ng/mL | MRT (ip, mice, intraperitoneal): 3.28 ± 0.42 h | Tmax (ip, mice, intraperitoneal): 0.32 ± 0.21 h | bioavailability (ip, mice, intraperitoneal): 20.7% | half-life (ip, mice, intraperitoneal): 2.64 ± 0.72 h | Vd/F (ip, mice, intraperitoneal, read-out: Vz/F): 15.9 ± 7.41 L/kg | concentration at 0.083 h [2]: 3060 ng/mL | concentration at 0.25 h [2]: 2850 ng/mL | concentration at 0.5 h [2]: 2650 ng/mL | concentration at 0.75 h [2]: 2350 ng/mL | concentration at 4 h [2]: 850 ng/mL | concentration at 6 h [2]: 460 ng/mL | concentration at 0.083 h [3]: 3940 ± 730 ng/mL | concentration at 0.25 h [3]: 3770 ± 640 ng/mL | concentration at 0.5 h [3]: 3530 ± 530 ng/mL | concentration at 0.75 h [3]: 3310 ± 740 ng/mL | concentration at 1 h [3]: 3190 ± 700 ng/mL | concentration at 2 h [3]: 2300 ± 650 ng/mL | concentration at 4 h [3]: 1010 ± 160 ng/mL | concentration at 6 h [3]: 420 ± 90 ng/mL | concentration at 8 h [3]: 210 ± 80 ng/mL | concentration at 12 h [3]: 50 ± 10 ng/mL | concentration at 0.25 h [4]: 90 ± 50 ng/mL | concentration at 0.5 h [4]: 310 ± 110 ng/mL | concentration at 1 h [4]: 490 ± 160 ng/mL | concentration at 2 h [4]: 360 ± 210 ng/mL
